Laboratory results taken from patent publication US10947188B2, “Small molecule ferroptosis inducers” (THE TRUSTEES OF COLUMBIA UNIVERSITY IN THE CITY OF NEW YORK, priority 2016, dated 2021).
One block for each compound: values may come before it.

Assays:
HT-1080 = assay: Modulatory profiling: Alamar Blue viability, lethal compound cotreated with death modulator (EC50, AUC); assay type: cell-based; parameters: AUC, modulator HT.3MA / AUC, modulator HT.ALLN / AUC HT.ATA / AUC HT.ActD / AUC HT.BHA / AUC HT.BHT / AUC HT.BocD / AUC HT.CHX / AUC HT.Co2+ / AUC HT.DPQ / AUC HT.EGTA / AUC HT.Lmim / AUC HT.NAD+ / AUC HT.Nec-1 / AUC HT.SP600125 / AUC HT.TLCK / AUC HT.U0126: unit not given beside the values; conditions: for AUC HT.ATA: HT-1080, modulator ATA; for AUC HT.ActD: HT-1080, modulator ActD; for AUC HT.BHA: HT-1080, modulator BHA; for AUC HT.BHT: HT-1080, modulator BHT; for AUC HT.BocD: HT-1080, modulator BocD; for AUC HT.CHX: HT-1080, modulator CHX; for AUC HT.Co2+: HT-1080, modulator Co2+; for AUC HT.CspA: HT-1080, modulator CspA; for AUC HT.DPQ: HT-1080, modulator DPQ; for AUC HT.EGTA: HT-1080, modulator EGTA; for AUC HT.Gd3+: HT-1080, modulator Gd3+; for AUC HT.LNAME: HT-1080, modulator LNAME; for AUC HT.Lmim: HT-1080, modulator Lmim; for AUC HT.NAD+: HT-1080, modulator NAD+; for AUC HT.NMMA: HT-1080, modulator NMMA; for HT.atoc (AUC) / HT.bCarotene (AUC) / HT.deferox (AUC) / HT.digoxin (AUC) / HT.trolox (AUC) / HT.zVAD (AUC) / EC50: HT-1080; for HT.atoc (AUC): modulator atoc; for HT.bCarotene (AUC): modulator bCarotene; for HT.deferox (AUC): modulator deferox; for HT.digoxin (AUC): modulator digoxin; for HT.trolox (AUC): modulator trolox; for HT.zVAD (AUC): modulator zVAD; for EC50: Homo sapiens, HT-1080, 48 h, 48 h
BJeLR = assay: as above; assay type: cell-based, human; parameters: AUC, modulator BJ.Gd3+ / AUC, modulator BJ.LNAME / AUC, modulator BJ.Lmin / AUC, modulator BJ.3MA / AUC, modulator BJ.ALLN / AUC, modulator BJ.Boc D / AUC, modulator BJ.CHX / AUC, modulator BJ.Co2+ / AUC, modulator BJ.Nec-1 / AUC, modulator BJ.Pepstatin / AUC, modulator BJ.TLCK / AUC, modulator BJ.atoc / AUC, modulator BJ.trolox / AUC, modulator BJ.zVAD: unit not given beside the values; conditions: for AUC, modulator BJ.3MA / AUC, modulator BJ.ALLN / AUC, modulator BJ.Boc D / AUC, modulator BJ.CHX / AUC, modulator BJ.Co2+ / AUC, modulator BJ.DPQ / AUC, modulator BJ.Gd3+ / AUC, modulator BJ.LNAME / AUC, modulator BJ.Lmin/NAD+ / AUC, modulator BJ.Lmin / AUC, modulator BJ.NAD+ / AUC, modulator BJ.NMMA / AUC, modulator BJ.Nec-1 / AUC, modulator BJ.Pepstatin / AUC, modulator BJ.TLCK: BJeLR cells, modulatory profile value (AUC); for AUC, modulator BJ.3MA: lethal compound cotreated with modulator 3MA; for AUC, modulator BJ.ALLN: lethal compound cotreated with modulator ALLN; for AUC, modulator BJ.Boc D: lethal compound cotreated with modulator Boc D; for AUC, modulator BJ.CHX: lethal compound cotreated with modulator CHX; for AUC, modulator BJ.Co2+: lethal compound cotreated with modulator Co2+; for AUC, modulator BJ.DPQ: lethal compound cotreated with modulator DPQ; for AUC, modulator BJ.Gd3+: lethal compound cotreated with modulator Gd3+; for AUC, modulator BJ.LNAME: lethal compound cotreated with modulator LNAME; for AUC, modulator BJ.Lmin/NAD+: lethal compound cotreated with modulator Lmin/NAD+; for AUC, modulator BJ.Lmin: lethal compound cotreated with modulator Lmin; for AUC, modulator BJ.NAD+: lethal compound cotreated with modulator NAD+; for AUC, modulator BJ.NMMA: lethal compound cotreated with modulator NMMA; for AUC, modulator BJ.Nec-1: lethal compound cotreated with modulator Nec-1; for AUC, modulator BJ.Pepstatin: lethal compound cotreated with modulator Pepstatin; for AUC, modulator BJ.TLCK: lethal compound cotreated with modulator TLCK; for EC50: Homo sapiens, BJeLR, 48 h
HT-1080 cells [1] = assay: Cell viability assay (Alamar Blue), lethal compounds with or without modulators; assay type: cell-based
Description: 1,000 cells per 36 μl were seeded in each well in 384-well plates. Lethal compounds were dissolved, and a twofold, 12-point dilution series was prepared in DMSO. Compound solutions were further diluted with media at 1:25, and 4 μl per well of the diluted solutions was added to cell cultures immediately after cells were seeded. […] When other cell-death-modulating compounds (100 nM sodium selenite, 1 μM cerivastatin, 100 μg/mL mevalonic acid) were used in cotreatments, they were supplemented to cell culture for 24 h before lethal compounds were added to cell culture, after which cells were further incubated for 24 h at 37° C. under 5% CO2. On the day of the viability measurement, we added 10 μl per well of 50% Alamar Blue diluted in media (Life Technologies) and further incubated the cells at 37° C. for 6 h. Fluorescence intensity (excitation/emission: 530/590) was measured with a Victor 3 plate reader (PerkinElmer), and the normalized viability was calculated as VL=(IL−I0)/(IV−I0), where VL, I0, IV, and IL are the normalized viability and the raw fluorescence intensities from the wells containing media, cells treated with a vehicle (negative control), and cells with the lethal compound (L), respectively. When the effect of a chemical modulator (M) on L was calculated, we instead used the equation VL|M=(IM,L−I0)/(IM,V−I0), where VL|M, IM,L and IM,V are the normalized viability, and fluorescence intensity from cells treated with […], respectively. The viability was typically measured in biological triplicate unless otherwise specified. A representative dose-response curve, the mean and standard error of normalized viability from one replicate were plotted. […]

[2] = test system: BJeLR, DRD, BJeHLT, and BJeH; assay: Viability of four engineered BJ cell lines (HRAS G12V selectivity); assay type: cell-based, human; conditions: 48 h
HT-1080 cells [3] = assay: Analysis of lipid ROS generation (C11-BODIPY 581/591 flow cytometry); assay type: cell-based; conditions: HT-1080; 6 h; with or without deferoxamine
Description: Cells were treated with test compounds, trypsinized, pelleted, and washed once with PBS. For lipophilic or aqueous ROS detection, cells were re-suspended in Hanks' Balanced Salt Solution (HBSS; […] Cells were then pelleted, re-suspended in 500 μL HBSS, strained through a 40-μm cell strainer (BD Falcon), and analyzed using a BD Accuri C6 flow cytometer (BD Biosciences). Both dyes were measured in the FL1 channel. Experiments were done in biological triplicates.

[4] = Cobalt (II) binding assay in vitro (absorbance spectrum); conditions: absorbance 300-700 nm
Description: For each cluster I compound (CIL13, −52, and −64), prepared two-fold dilution series with DMSO. We added 30 μL per well of either water or 10 μM cobalt (II) chloride solution to each well of a 384-well plate. Dilution series of each compound in DMSO were added by 10 μL per well. After solutions had been mixed by shaking of the plate using a Victor 3 plate reader (PerkinElmer), absorbance was scanned between 300 and 700 nm for each compound. Finally the following Absorbance value for each compound was plotted (see FIG. 9B):
[formula] where Abs is the absorbance at each wavelength. Search of Commercially Available Structural Analogs of CIL41/70.

[5] = cotreated with antioxidant Trolox
[6] = cotreated with iron-chelator Lmim

Compound: O=S(=O)(c1ccc2c(c1)C(=NO)c1cc(S(=O)(=O)N3CCCCC3)ccc1-2)N1CCCCC1 [CIL56, 2,7-bis(piperidin-1-ylsulfonyl)-9H-fluoren-9-one oxime]
AUC HT.ATA (HT-1080): −0.01939 | AUC HT.ActD (HT-1080): −0.124 | AUC HT.BHA (HT-1080): 0.1774 | AUC HT.BHT (HT-1080): 0.0146 | AUC HT.BocD (HT-1080): −0.0127 | AUC HT.CHX (HT-1080): −0.07234 | AUC HT.Co2+ (HT-1080): 0.01296 | AUC HT.CspA (HT-1080): 0.01564 | AUC HT.DPQ (HT-1080): 0.06245 | AUC HT.EGTA (HT-1080): 0.02378 | AUC HT.Gd3+ (HT-1080): −0.01542 | AUC HT.LNAME (HT-1080): 0.05375 | AUC HT.Lmim (HT-1080): 0.1017 | AUC HT.NAD+ (HT-1080): 0.02315 | AUC HT.NMMA (HT-1080): −0.01475 | HT.atoc (AUC) (HT-1080): 0.2436 | HT.bCarotene (AUC) (HT-1080): 0.05423 | HT.deferox (AUC) (HT-1080): 0.1269 | HT.digoxin (AUC) (HT-1080): −0.1402 | HT.trolox (AUC) (HT-1080): 0.1421 | HT.zVAD (AUC) (HT-1080): 0.03666 | effect of ferroptosis inhibitors (iron chelators and lipophilic antioxidants) on lethality in modulatory profiling (HT-1080; HT-1080 and BJeLR): suppression by canonical ferroptosis inhibitors | EC50 (HT-1080; DMSO): 443 nM | EC50 (HT-1080; cotreated with MEK inh U0126): 2810 nM | EC50 (HT-1080; cotreated with antioxidant Atoc): 2490 nM | EC50 (HT-1080; cotreated with antioxidant BHA): 2650 nM | EC50 (HT-1080; cotreated with antioxidant BHT): 1690 nM | EC50 (HT-1080; [5]): 1310 nM | EC50 (HT-1080; cotreated with iron-chelator Deferoxamine): 1360 nM | EC50 (HT-1080; [6]): 1530 nM | AUC, modulator BJ.3MA (BJeLR): 0.1459 | AUC, modulator BJ.ALLN (BJeLR): 0.05831 | AUC, modulator BJ.Boc D (BJeLR): −0.01043 | AUC, modulator BJ.CHX (BJeLR): −0.07221 | AUC, modulator BJ.Co2+ (BJeLR): 0.1263 | AUC, modulator BJ.DPQ (BJeLR): 0.03219 | AUC, modulator BJ.Gd3+ (BJeLR): 0.004997 | AUC, modulator BJ.LNAME (BJeLR): 0.005978 | AUC, modulator BJ.Lmin/NAD+ (BJeLR): 0.2194 | AUC, modulator BJ.Lmin (BJeLR): 0.1358 | AUC, modulator BJ.NAD+ (BJeLR): 0.02645 | AUC, modulator BJ.NMMA (BJeLR): 0.0004905 | AUC, modulator BJ.Nec-1 (BJeLR): 0.2368 | AUC, modulator BJ.Pepstatin (BJeLR): 0.03545 | AUC, modulator BJ.TLCK (BJeLR): 0.1986 | EC50 (BJeLR; DMSO): 213 nM | EC50 (BJeLR; cotreated with Lmim_NAD): 1300 nM | EC50 (BJeLR; [5]): 2030 nM | EC50 (BJeLR; cotreated with antioxidant atoc): 2490 nM | EC50 (BJeLR; [6]): 925 nM | effect of ferroptosis inhibitors (α-tocopherol, deferoxamine) on lethality (HT-1080 cells [1]; HT-1080 cells, cotreatment): suppressed the lethality of low concentrations | suppression of lethality by antioxidants and iron chelators (HT-1080 cells [1]; ferroptosis-sensitive HT-1080 cells): up to 10 fold | oncogenic RAS selectivity in the BJ engineered cell line series [2]: retained some degree of selectivity toward oncogenic-RAS-expressing cells | lipid ROS generation (BODIPY-581/591 C11) (HT-1080 cells [3]): induced iron-dependent ROS

binding to cobalt (II) in vitro [4]: bound to cobalt (II) in vitro
Compound: C/C(=N\Nc1ncc(Cl)cc1Cl)c1ccccn1 [CIL64]
AUC HT.ATA (HT-1080): 0.1979 | AUC HT.ActD (HT-1080): 0.04802 | AUC HT.BHA (HT-1080): −0.1469 | AUC HT.BHT (HT-1080): −0.3128 | AUC HT.BocD (HT-1080): −0.1078 | AUC HT.CHX (HT-1080): 0.06685 | AUC HT.Co2+ (HT-1080): 0.4161 | AUC HT.CspA (HT-1080): 0.08661 | AUC HT.DPQ (HT-1080): −0.135 | AUC HT.EGTA (HT-1080): 0.1842 | AUC HT.Gd3+ (HT-1080): −0.0263 | AUC HT.LNAME (HT-1080): <0.2159 | AUC HT.Lmim (HT-1080): −0.2705 | AUC HT.NAD+ (HT-1080): −0.1971 | AUC HT.NMMA (HT-1080): −0.1742 | HT.atoc (AUC) (HT-1080): −0.06249 | HT.bCarotene (AUC) (HT-1080): 0.1654 | HT.deferox (AUC) (HT-1080): 0.127 | HT.digoxin (AUC) (HT-1080): 0.0348 | HT.trolox (AUC) (HT-1080): −0.08079 | HT.zVAD (AUC) (HT-1080): 0.05557 | effect of cobalt (II) on lethality (HT-1080; modulatory profiles, CoCl2 supplementation): inhibited by cobalt (II) | AUC, modulator BJ.3MA (BJeLR): 0.02465 | AUC, modulator BJ.ALLN (BJeLR): 0.0142 | AUC, modulator BJ.Boc D (BJeLR): 0.01108 | AUC, modulator BJ.CHX (BJeLR): 0.04712 | AUC, modulator BJ.Co2+ (BJeLR): 0.9402 | AUC, modulator BJ.DPQ (BJeLR): 0.009397 | AUC, modulator BJ.Gd3+ (BJeLR): 0.02721 | AUC, modulator BJ.LNAME (BJeLR): 0.03249 | AUC, modulator BJ.Lmin/NAD+ (BJeLR): 0.0757 | AUC, modulator BJ.Lmin (BJeLR): 0.02777 | AUC, modulator BJ.NAD+ (BJeLR): 0.1422 | AUC, modulator BJ.NMMA (BJeLR): 0.001966 | AUC, modulator BJ.Nec-1 (BJeLR): 0.05533 | AUC, modulator BJ.Pepstatin (BJeLR): 0.04262 | AUC, modulator BJ.TLCK (BJeLR): 0.06508
